# Experiments:
# PHLPP-1α = biological target: T1, PHLPP-1α (Homo sapiens, UniProt O60346); test: okadaic acid sensitivity of PHLPP-1α mediated dephosphorylation of Akt at Ser473 in 293T cells; type: cell-based; conditions: OA 1 μM for 15 minutes, 293T cells transfected with HA-PHLPP-1α
# T1 construct: The full-length human PHLPP-1α cDNA was cloned by combining the following cDNA fragments; expressed in transfected cells; host or cells: 293T cells
# T1 sequence (O60346 1-1205 isoform O60346-2): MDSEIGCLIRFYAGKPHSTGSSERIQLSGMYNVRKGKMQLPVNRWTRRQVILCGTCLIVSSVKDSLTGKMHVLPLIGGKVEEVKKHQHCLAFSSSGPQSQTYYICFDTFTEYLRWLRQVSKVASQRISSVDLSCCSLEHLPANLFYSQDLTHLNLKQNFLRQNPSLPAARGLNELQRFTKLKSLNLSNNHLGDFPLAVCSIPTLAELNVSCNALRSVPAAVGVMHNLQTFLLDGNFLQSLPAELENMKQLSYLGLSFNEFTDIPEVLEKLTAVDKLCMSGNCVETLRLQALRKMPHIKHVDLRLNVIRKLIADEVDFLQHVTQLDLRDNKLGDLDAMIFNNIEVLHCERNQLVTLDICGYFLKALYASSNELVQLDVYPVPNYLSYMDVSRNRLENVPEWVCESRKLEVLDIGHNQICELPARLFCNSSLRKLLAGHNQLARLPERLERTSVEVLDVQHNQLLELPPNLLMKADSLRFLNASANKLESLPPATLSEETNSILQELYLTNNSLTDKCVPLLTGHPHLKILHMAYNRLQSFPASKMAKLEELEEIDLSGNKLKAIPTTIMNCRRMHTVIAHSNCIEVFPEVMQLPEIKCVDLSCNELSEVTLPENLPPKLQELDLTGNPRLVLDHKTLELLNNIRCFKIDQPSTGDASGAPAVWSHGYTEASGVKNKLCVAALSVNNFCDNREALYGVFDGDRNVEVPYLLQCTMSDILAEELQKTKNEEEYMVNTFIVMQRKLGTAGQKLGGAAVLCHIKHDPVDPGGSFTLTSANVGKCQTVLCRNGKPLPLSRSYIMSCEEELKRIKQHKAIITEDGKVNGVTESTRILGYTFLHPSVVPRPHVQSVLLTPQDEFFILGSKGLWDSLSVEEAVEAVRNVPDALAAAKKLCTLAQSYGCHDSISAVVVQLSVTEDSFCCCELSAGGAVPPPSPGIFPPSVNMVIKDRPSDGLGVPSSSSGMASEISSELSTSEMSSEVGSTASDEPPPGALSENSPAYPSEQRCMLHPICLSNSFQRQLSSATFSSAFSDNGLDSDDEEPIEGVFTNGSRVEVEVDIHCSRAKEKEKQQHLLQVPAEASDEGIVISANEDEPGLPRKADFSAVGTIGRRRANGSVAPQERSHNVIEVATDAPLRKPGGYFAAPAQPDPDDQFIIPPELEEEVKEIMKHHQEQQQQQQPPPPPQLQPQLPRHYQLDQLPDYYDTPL
# Protocol: FIG. 29. PHLPP-1α mediated-dephosphorylation of Akt at Ser473 is okadaic acid-insensitive. 293T cells transfected with HA-PHLPP-1α were serum starved overnight. The cells were then left untreated (lane 1), treated with insulin (100 nM) for 30 minutes (lane 2), treated with insulin for 30 minutes followed by okadaic acid (OA, 1 μM) for 15 minutes (lane 3), or treated with insulin for 30 minutes followed by OA for 15 minutes followed by LY294002 (LY, 30 μM) for 20 minutes (lane 4). Western blots showing phosphorylation of endogenous Akt as detected by P308 and P473 antibodies. Total Akt was detected using the anti-Akt antibody.
# MDA-MB-231 cells = test: apoptosis assay, sub-2N DNA by flow cytometry; type: cell-based; conditions: co-expressed with PHLPP2
# Protocol: Apoptosis assays were performed as described previously (Brognard et al., 2001). Briefly, cells were transfected with different PHLPP expression constructs or siRNAs. In the case of gating for transfected cells, a GFP expression construct was co-transfected into the cells. Approximately 24 hours post-transfection, the cells were switched to low serum medium (DMEM plus 0.1% FBS) and allowed to grow for an additional 48 hours. For LY294002 (25 μM) treatment, the drug was added at the time when the cells were switched into the low serum medium. The cells were collected and stained with propidium iodide (25 μg/ml). Apoptotic cells were defined as sub-2N DNA containing cells. Quantification of apoptosis was obtained using flow cytometry analysis with a Becton Dickinson FACSort.
# Apoptotic assays were performed as described above. To determine G1/S ratios, cells were co-transfected with GFP and HA-PHLPP2 and incubated under high serum (10% FBS) conditions for 48 hrs and cells were gated based on GFP expression as described above. For BrdU incorporation assays, cells were transfected with 100 nM siRNA (si-1) and incubated for 48 hrs prior to performing assay following manufacturers protocol (Oncogene Research Products).
Compound,sensitivity of PHLPP-1α mediated dephosphorylation of Akt at Ser473 (PHLPP-1α),rescue of the apoptosis induced by PHLPP2 (MDA-MB-231 cells)
C=C1[C@@H](O)[C@@H]2O[C@]3(CC[C@H](/C=C/[C@@H](C)[C@@H]4CC(C)=C[C@@]5(O[C@H](C[C@@](C)(O)C(=O)O)CC[C@H]5O)O4)O3)CC[C@H]2O[C@@H]1[C@@H](O)C[C@H](C)[C@H]1O[C@@]2(CCCCO2)CC[C@H]1C [okadaic acid],insensitive,–
"S473D: phosphomimetic and thus constitutively active Akt construct, resistant to dephosphorylation by PHLPP2",–,two-thirds

# — patent US20080108569A1, “Compositions and Methods for Treating Diseases Associated With Phlpp” (The Regents of the University of California, priority 2005, published 2008)
